Results from patent publication US8604040B2 (priority 2010, dated 2013).
Read-outs that look alike come from different tables or passages of the source. Marks after values point to notes of the source that are not given here.

Experiment: log P by HPLC (EEC Directive 79/831 Annex V.A8)
Format: physicochemical
[1] = [b] LC-MS, acidic range, pH 2.7, 0.1% aqueous formic acid and acetonitrile
[2] = [c] LC-MS, neutral range, pH 7.8, 0.001 molar aqueous ammonium hydrogencarbonate and acetonitrile
[3] = [a] HPLC, acidic range, pH 2.3, 0.1% aqueous phosphoric acid and acetonitrile
[4] = HPLC, pH 2.7, given in the preparation examples, read-out: logP (pH2.7)
[5] = HPLC (LC-MS), [b] LC-MS, acidic range, pH 2.7, 0.1% aqueous formic acid and acetonitrile, read-out: log P

Row | Compound | log P [1] | log P [2] | also measured
1 | Cc1cc(C(F)(F)F)nn1CC(=O)N1CCC(c2cccc(C(=O)OC3C=CCCC3)n2)CC1 (stereo not drawn) [Example 33] | 3.64^[b] |  | 
2 | O=C(OC1C=CCCC1)c1cccc(C2CCN(C(=O)Cn3nc(C(F)F)cc3C(F)F)CC2)n1 (stereo not drawn) [Example 98] | 3.87^[b] |  | 
3 | Cc1cc(C(F)(F)F)nn1CC(=O)N1CCC(c2cccc(C(=O)OCC3CCCCC3)n2)CC1 [Example 38] | 4.38^[b] |  | 
4 | Cc1cc(C(F)(F)F)nn1CC(=O)N1CCN(c2cccc(C(=O)NCc3c(F)cccc3F)n2)CC1 [Example 66] | 3.11 | 3.12 | 
5 | O=C(Oc1cccc2c1CCCC2)c1cccc(N2CCN(C(=O)Cn3nc(C(F)F)cc3C(F)F)CC2)n1 [Example 139] |  | 4.29 | log P [3]: 4.25
6 | Cc1cc(C(F)(F)F)nn1CC(=O)N1CCC(c2cccc(C(=O)SCc3ccc(F)cc3)n2)CC1 [Example 59] | 4.29 | 4.31 | 
7 | CCOC(=O)c1cccc(C2CCN(C(=O)OC(C)(C)C)CC2)n1 [Ethyl 6-[1-(tert-butoxycarbonyl)piperidin-4-yl]pyridine-2-carboxylate] |  |  | chromatographic logP [4]: 3.29
8 | O=C(OCc1ccccc1OC(F)(F)F)c1cccc(C2CCN(C(=O)Cn3nc(C(F)F)cc3C(F)F)CC2)n1 [Example 9] | 3.89^[b] |  | 
9 | Cc1cc(C(F)(F)F)nn1CC(=O)N1CCC(c2cccc(C(=O)Oc3ccc4ccccc4c3)n2)CC1 [Example 52] | 3.9^[b] |  | 
10 | O=C(OC1CCCCC1F)c1cccc(C2CCN(C(=O)Cn3nc(C(F)F)cc3C(F)F)CC2)n1 (stereo not drawn) [Example 115] | 3.37^[b] |  | 
11 | Cc1cc(C(F)(F)F)nn1CC(=O)N1CCC(c2cccc(C(=O)OCC(C)(C)C)n2)CC1 [Example 37] | 3.86^[b] |  | 
12 | CC(C)(C)OC(=O)N1CC=C(c2cccc(Br)n2)CC1 [tert-Butyl 6-bromo-3′,6′-dihydro-2,4′-bipyridine-1′(2′H)-carboxylate] |  |  | chromatographic logP [4]: 4.14
13 | CN(C(=O)c1cccc(C2CCN(C(=O)OC(C)(C)C)CC2)n1)C1CCCc2ccccc21 (stereo not drawn) [tert-butyl 4-{6-[methyl(1,2,3,4-tetrahydronaphthalen-1-yl)carbamoyl]pyridin-2-yl}piperidine-1-carboxylate] |  |  | chromatographic logP [4]: 5.09
14 | CCCCCCCSC(=O)c1cccc(C2CCN(C(=O)Cn3nc(C(F)F)cc3C(F)F)CC2)n1 [Example 129] |  | 5.44 | log P [3]: 5.43
15 | Cc1cc(C(F)(F)F)nn1CC(=O)N1CCC(c2cccc(C(=O)NCc3ccccc3Br)n2)CC1 [Example 5] | 3.59^[b]; 3.59^[c] | 3.59^[b]; 3.59^[c] | 
16 | Cc1cc(C(F)(F)F)nn1CC(=O)N1CCC(c2cccc(C(=O)SCc3ccccc3Cl)n2)CC1 [Example 57] | 4.61^[b]; 4.61^[c] | 4.61^[b]; 4.61^[c] | 
17 | O=C(NCc1ccccc1Cl)c1cccc(N2CCN(C(=O)Cn3nc(C(F)F)cc3C(F)F)CC2)n1 [Example 146] |  | 3.26 | log P [3]: 3.24
18 | Cc1cc(C(F)(F)F)nn1CC(=O)N1CCC(c2cccc(C(=O)Sc3cccc4ccccc34)n2)CC1 [Example 60] | 4.41 | 4.46 | 
19 | O=C(OCc1ccccc1Cl)c1cccc(C2CCN(C(=O)Cn3nc(C(F)F)cc3C(F)F)CC2)n1 [Example 105] | 3.77^[b] |  | 

Row | Compound | log P [1] | log P [2] | also measured
20 | O=C(Cn1nc(C(F)F)cc1C(F)F)N1CCC(c2cccc(C(=O)N3CCOc4ccccc43)n2)CC1 [Example 81] | 2.98 | 2.97 | 
21 | Cc1cccnc1COC(=O)c1cccc(C2CCN(C(=O)Cn3nc(C(F)(F)F)cc3C)CC2)n1 [Example 49] | 2.23^[b] |  | 
22 | Cc1cc(C(F)(F)F)nn1CC(=O)N1CCC(c2cccc(C(=O)N3CCOc4ccccc43)n2)CC1 [Example 15] | 3.04^[b]; 3.04^[c] | 3.04^[b]; 3.04^[c] | 
23 | CCCCCCCOC(=O)c1cccc(C2CCN(C(=O)Cn3nc(C(F)(F)F)cc3C)CC2)n1 [Example 40] | 4.73^[b] |  | 
24 | CN(Cc1ccccc1Br)C(=O)c1cccc(C2CCN(C(=O)Cn3nc(C(F)F)cc3C(F)F)CC2)n1 [Example 1] | 3.32 | 3.37 | 
25 | Cc1cc(C(F)(F)F)nn1CC(=O)N1CCC(c2cccc(C(=O)NC3CCc4ccccc43)n2)CC1 (racemic) [Example 19] | 3.56^[b]; 3.56^[c] | 3.56^[b]; 3.56^[c] | 
26 | O=C(NC1CCc2ccccc21)c1cccc(C2CCN(C(=O)Cn3nc(C(F)F)cc3C(F)F)CC2)n1 (stereo not drawn) [Example 84] | 3.4 | 3.44 | 
27 | Cc1cc(C(F)(F)F)nn1CC(=O)N1CCC(c2cccc(C(=O)NCc3c(F)cccc3F)n2)CC1 [Example 24] | 3.33 | 3.26 | 
28 | O=C(NCc1c(F)cccc1F)c1cccc(C2CCN(C(=O)Cn3nc(C(F)F)cc3C(F)F)CC2)n1 [Example 89] | 3.11 | 3.14 | 
29 | Cc1cccnc1COC(=O)c1cccc(C2CCN(C(=O)Cn3nc(C(F)F)cc3C(F)F)CC2)n1 [Example 108] | 2.14^[b] |  | 
30 | Cc1csc(COC(=O)c2cccc(C3CCN(C(=O)Cn4nc(C(F)F)cc4C(F)F)CC3)n2)c1 [Example 109] | 3.6^[b] |  | 
31 | Cc1cc(C(F)(F)F)nn1CC(=O)N1CCC(c2cccc(C(=O)OCc3c(F)cccc3F)n2)CC1 [Example 48] | 3.51^[b] |  | 
32 | Cc1cc(C(F)(F)F)nn1CC(=O)N1CCC(c2cccc(C(=O)N(C)Cc3ccccn3)n2)CC1 [Example 14] |  | 2.23^[c] | 
33 | Cc1cc(C(F)(F)F)nn1CC(=O)N1CCC(c2cccc(C(=O)OCc3ccc(F)cc3F)n2)CC1 [Example 42] | 3.6^[b] |  | 
34 | O=C(OC1CCCc2ccccc21)c1cccc(C2CCN(C(=O)Cn3nc(C(F)F)cc3C(F)F)CC2)n1 (stereo not drawn) [Example 100] | 4.07^[b] |  | 
35 | Cc1cc(C(F)(F)F)nn1CC(=O)N1CCC(c2cccc(C(=O)N(C)Cc3ccccc3Br)n2)CC1 [Example 2] | 3.47 | 3.49 | 
36 | Cc1cc(C(F)(F)F)nn1CC(=O)N1CCC(c2cccc(C(=O)OC(C)c3ccccc3Cl)n2)CC1 (stereo not drawn) [Example 32] | 4.12^[b] |  | 
37 | CCOC(=O)c1cccc(N2CCN(C(=O)OC(C)(C)C)CC2)n1 [tert-Butyl 4-[6-(ethoxycarbonyl)pyridin-2-yl]piperazine-1-carboxylate] |  |  | chromatographic logP [4]: 3.32
38 | Cc1cc(C(F)(F)F)nn1CC(=O)N1CCC(c2cccc(C(=O)NC3CCCCC3)n2)CC1 [Example 18] |  | 3.46^[c] | 

Row | Compound | log P [1] | log P [2] | also measured
39 | CN(Cc1ccccc1Cl)C(=O)c1cccc(N2CCN(C(=O)Cn3nc(C(F)F)cc3C(F)F)CC2)n1 [Example 148] |  | 3.25 | log P [3]: 3.22
40 | O=C(OC1CCCCC1)c1cccc(C2CCN(C(=O)Cn3nc(C(F)F)cc3C(F)F)CC2)n1 [Example 99, Cyclohexyl 6-(1-{[3,5-bis(difluoromethyl)-1H-pyrazol-1-yl]acetyl}piperidin-4-yl)-pyridine-2-carboxylate] |  |  | chromatographic logP [5]: 3.83; chromatographic logP [4]: 3.83
41 | O=C(NCc1ccc(F)cc1F)c1cccc(C2CCN(C(=O)Cn3nc(C(F)F)cc3C(F)F)CC2)n1 [Example 87] | 3.22 | 3.24 | 
42 | C=CCCCCOC(=O)c1cccc(C2CCN(C(=O)Cn3nc(C(F)F)cc3C(F)F)CC2)n1 [Example 101] | 3.8^[b] |  | 
43 | Cc1cc(C(F)(F)F)nn1CC(=O)N1CCC(c2cccc(C(=O)Nc3cccc4cccnc34)n2)CC1 [Example 31] | 4.02 | 4.04 | 
44 | Cc1cc(C(F)(F)F)nn1CC(=O)N1CCN(c2cccc(C(=O)OCc3ccccc3Cl)n2)CC1 [Example 72] | 3.89 | 3.9 | 
45 | O=C(Sc1ccccc1)c1cccc(C2CCN(C(=O)Cn3nc(C(F)F)cc3C(F)F)CC2)n1 [Example 121] |  | 3.85 | log P [3]: 3.8
46 | Cc1cc(C(F)(F)F)nn1CC(=O)N1CCC(c2cccc(C(=O)N(C)C3CCCc4ccccc43)n2)CC1 (stereo not drawn) [Example 12, N-Methyl-6-(1-{[5-methyl-3-(trifluoromethyl)-1H-pyrazol-1-yl]acetyl}piperidin-4-yl)-N-(1,2,3,4-tetrahydronaphthalen-1-yl)pyridine-2-carboxamide] |  |  | chromatographic logP [5]: 3.61; chromatographic logP [4]: 3.61
47 | Cc1cc(C(F)(F)F)nn1CC(=O)N1CCC(c2cccc(C(=O)Sc3cccs3)n2)CC1 [Example 63] | 3.85 | 3.88 | 
48 | O=C(NCc1cccs1)c1cccc(C2CCN(C(=O)Cn3nc(C(F)F)cc3C(F)F)CC2)n1 [Example 91] | 2.98 | 2.97 | 
49 | Cc1cc(C(F)(F)F)nn1CC(=O)N1CCN(c2cccc(C(=O)OCc3c(F)cccc3F)n2)CC1 [Example 74] | 3.54 | 3.55 | 
50 | O=C(O)c1cccc(N2CCN(C(=O)Cn3nc(C(F)F)cc3C(F)F)CC2)n1 [6-(4-{[3,5-Bis(difluoromethyl)-1H-pyrazol-1-yl]acetyl}piperazin-1-yl)pyridine-2-carboxylic acid] |  |  | chromatographic logP [4]: 0.68
51 | COC1CCCCC1OC(=O)c1cccc(C2CCN(C(=O)Cn3nc(C(F)F)cc3C(F)F)CC2)n1 (stereo not drawn) [Example 97] | 4.17^[b] |  | 
52 | O=C(SC1CCCCC1)c1cccc(C2CCN(C(=O)Cn3nc(C(F)F)cc3C(F)F)CC2)n1 [Example 112] |  | 4.65 | log P [3]: 4.63
53 | CCCCCCCSC(=O)c1cccc(N2CCN(C(=O)Cn3nc(C(F)F)cc3C(F)F)CC2)n1 [Example 130] |  | 5.38 | log P [3]: 5.4
54 | C=CCCCCOC(=O)c1cccc(C2CCN(C(=O)Cn3nc(C(F)(F)F)cc3C)CC2)n1 [Example 39] | 3.86^[b] |  | 
55 | Cc1cc(C(F)(F)F)nn1CC(=O)N1CCN(c2cccc(C(=O)N(C)C3CCCc4ccccc43)n2)CC1 (stereo not drawn) [Example 147] | 3.55 | 3.59 | 
56 | CCCCCCCOC(=O)c1cccc(C2CCN(C(=O)Cn3nc(C(F)F)cc3C(F)F)CC2)n1 [Example 102] | 4.59^[b] |  | 
57 | Cc1cc(C(F)(F)F)nn1CC(=O)N1CCC(c2cccc(C(=O)NCc3ccc(F)cc3F)n2)CC1 [Example 22] | 3.36^[b]; 3.36^[c] | 3.36^[b]; 3.36^[c] | 
